How the values were obtained:
[1] = system: mutated miR-193a-3p (miR-193a-mut) (RNA, miRNA) AACUUCCUACAAAGUCCCAGU; assay: CD spectra; conditions: 190 mM NaCl; 20 mM HEPES pH 7.2, 1 mM EDTA, BSA, Tween-20; 200 µM Trp
[2] = system: miR-193a-3p (RNA, miRNA) AACUGGCCUACAAAGUCCCAGU; assay: CD spectra; conditions: 190 mM NaCl; 20 mM HEPES pH 7.2, 1 mM EDTA, BSA, Tween-20; 100 nM RNA, 200 µM Trp
[3] = system: mutated miR-193a-3p (miR-193a-mut) (RNA, miRNA) AACUUCCUACAAAGUCCCAGU; assay: ITC; conditions: 190 mM NaCl; 20 mM HEPES pH 7.2, 1 mM EDTA, BSA, Tween-20; 200 µM Trp titrant
[4] = system: miR-193a-5p (RNA, miRNA) UGGGUCUUUGCGGGCAAGAUGA; assay: CD spectra; conditions: 190 mM NaCl; 20 mM HEPES pH 7.2, 1 mM EDTA, BSA, Tween-20; 200 µM Trp
[5] = system: biotinylated miR-193a-3p (RNA, miRNA) AACUGGCCUACAAAGUCCCAGU; assay: SPR (OpenSPR); conditions: 190 mM NaCl; 10 mM HEPES, 1 mM EDTA, 0.02% Tween-20; Trp 2, 20, 200 µM
[6] = system: miR-193a-3p (RNA, miRNA) AACUGGCCUACAAAGUCCCAGU; assay: ITC; conditions: 190 mM NaCl; 20 mM HEPES pH 7.2, 1 mM EDTA, 37.5 µg/ml BSA, 0.02% Tween-20; apparent

N[C@@H](Cc1c[nH]c2ccccc12)C(=O)O
binding [1]: no
binding [2]: yes
binding [3]: no
binding [4]: no
binding [5]: yes
Kd [6]: 5.3 µM

Source: article PMC11336974 (2024)
